Calls of active or inactive are those of the source. No cut-off for these calls is given here.
Columns and labels:
[1] = biological target: T1, Serine/threonine-protein kinase 4 (Homo sapiens) (UniProt Q13043); assay: Binding affinity to recombinant MST1 (unknown origin) assessed as stabilization by measuring change in melting temperature at 10 uM by SYPRO orange dye based differential scanning fluorimetry assay
T1 sequence (whole entry): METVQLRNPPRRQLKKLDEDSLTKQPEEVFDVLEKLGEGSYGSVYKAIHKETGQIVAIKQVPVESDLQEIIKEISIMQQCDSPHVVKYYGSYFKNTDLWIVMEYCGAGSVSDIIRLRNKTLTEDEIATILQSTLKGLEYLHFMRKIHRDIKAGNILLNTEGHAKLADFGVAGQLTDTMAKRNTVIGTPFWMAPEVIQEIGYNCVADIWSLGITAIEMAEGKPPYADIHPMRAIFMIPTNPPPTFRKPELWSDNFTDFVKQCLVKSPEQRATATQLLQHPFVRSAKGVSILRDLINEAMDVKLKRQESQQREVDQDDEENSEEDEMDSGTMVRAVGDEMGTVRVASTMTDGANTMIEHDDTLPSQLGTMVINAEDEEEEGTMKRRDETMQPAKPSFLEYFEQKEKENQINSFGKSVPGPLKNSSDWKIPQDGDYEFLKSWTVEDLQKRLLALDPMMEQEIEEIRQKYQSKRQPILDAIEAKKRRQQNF

[2] = biological target: Serine/threonine-protein kinase 24 (Homo sapiens) (UniProt Q9Y6E0); assay: Binding affinity to recombinant MST3 (unknown origin) assessed as stabilization by measuring change in melting temperature at 10 uM by SYPRO orange dye based differential scanning fluorimetry assay
[3] = biological target: Serine/threonine-protein kinase PAK 1 (Homo sapiens) (UniProt Q13153); assay: Binding affinity to recombinant PAK1 (unknown origin) assessed as stabilization by measuring change in melting temperature at 10 uM by SYPRO orange dye based differential scanning fluorimetry assay
Ephrin type-A receptor 2 [4] = biological target: T2, Ephrin type-A receptor 2 (Homo sapiens, UniProt P29317); assay: Binding affinity to recombinant EPHA2 (unknown origin) assessed as stabilization by measuring change in melting temperature at 10 uM by SYPRO orange dye based differential scanning fluorimetry assay
[5] = biological target: T3, Tyrosine-protein kinase ABL1 (Homo sapiens, UniProt P00519); assay: Binding affinity to recombinant ABL1 (unknown origin) assessed as stabilization by measuring change in melting temperature at 10 uM by SYPRO orange dye based differential scanning fluorimetry assay
[6] = biological target: Ephrin type-B receptor 1 (Homo sapiens) (UniProt P54762); assay: Binding affinity to recombinant EPHB1 (unknown origin) assessed as stabilization by measuring change in melting temperature at 10 uM by SYPRO orange dye based differential scanning fluorimetry assay
[7] = biological target: Cyclin-G-associated kinase (Homo sapiens) (UniProt O14976); assay: Binding affinity to recombinant GAK (unknown origin) assessed as stabilization by measuring change in melting temperature at 10 uM by SYPRO orange dye based differential scanning fluorimetry assay
[8] = biological target: Ephrin type-B receptor 3 (Homo sapiens) (UniProt P54753); assay: Binding affinity to recombinant EPHB3 (unknown origin) assessed as stabilization by measuring change in melting temperature at 10 uM by SYPRO orange dye based differential scanning fluorimetry assay
Ephrin type-A receptor 4 [9] = biological target: T4, Ephrin type-A receptor 4 (Homo sapiens, UniProt P54764); assay: Binding affinity to recombinant EPHA4 (unknown origin) assessed as stabilization by measuring change in melting temperature at 10 uM by SYPRO orange dye based differential scanning fluorimetry assay
Ephrin type-A receptor 2 [10] = biological target: T2, Ephrin type-A receptor 2; assay: Inhibition of full length NanoLuc fused EPHA2 (unknown origin) transfected in HEK293T cells using NanoBRET NanoGlo substrate incubated for 2 hrs in presence of tracer by NanoBRET assay; assay type: cell-based
[11] = biological target: T3, Tyrosine-protein kinase ABL1; assay: Inhibition of full length NanoLuc fused ABL1 (unknown origin) transfected in HEK293T cells using NanoBRET NanoGlo substrate incubated for 2 hrs in presence of tracer by NanoBRET assay; assay type: cell-based
[12] = biological target: Cyclin-G-associated kinase (Homo sapiens, UniProt O14976); assay: Inhibition of full length NanoLuc fused GAK (unknown origin) transfected in HEK293T cells using NanoBRET NanoGlo substrate incubated for 2 hrs in presence of tracer by NanoBRET assay; assay type: cell-based
Ephrin type-A receptor 4 [13] = biological target: T4, Ephrin type-A receptor 4; assay: Inhibition of full length NanoLuc fused EPHA4 (unknown origin) transfected in HEK293T cells using NanoBRET NanoGlo substrate incubated for 2 hrs in presence of tracer by NanoBRET assay; assay type: cell-based
Ephrin type-A receptor 3 = Ephrin type-A receptor 3 (Homo sapiens, UniProt P29320); assay: Inhibition of full length NanoLuc fused EPHA3 (unknown origin) transfected in HEK293T cells using NanoBRET NanoGlo substrate incubated for 2 hrs in presence of tracer by NanoBRET assay; assay type: cell-based
[14] = biological target: Serine/threonine-protein kinase SIK2 (Homo sapiens) (UniProt Q9H0K1); assay: Inhibition of recombinant human GST-tagged SIK2 assessed as downregulation of SIK2 phosphorylation at Ser358 a 5 uM incubated for 30 mins by Western blotting analysis
[15] = biological target: Serine/threonine-protein kinase SIK2 (Homo sapiens) (UniProt Q9H0K1); assay: Inhibition of SIK2 in human SK-OV-3 cells assessed as decrease in centrosome dissociation in G2 phase at 5 uM incubated for 48 hrs by immunofluorescence assay; assay type: cell-based
SK-OV-3 [16] = assay: Induction of cell cycle arrest in human SK-OV-3 cells assessed as accumulation of cells at G1 phase at 5 uM incubated for 24 hrs by flow cytometry (reference value: 34%); assay type: functional
SK-OV-3 [17] = assay: Induction of cell cycle arrest in human SK-OV-3 cells assessed as accumulation of cells at S phase at 5 uM incubated for 24 hrs by flow cytometry (reference value: 32%); assay type: functional
[18] = biological target: Serine/threonine-protein kinase SIK2 (Homo sapiens) (UniProt Q9H0K1); assay: Inhibition of SIK2 in human SK-OV-3 cells assessed as downregulation of AKT phosphorylation at Ser473 at 5 uM incubated for 48 hrs by Western blotting analysis; assay type: cell-based
[19] = biological target: Serine/threonine-protein kinase SIK2 (Homo sapiens) (UniProt Q9H0K1); assay: Inhibition of SIK2 in human SK-OV-3 cells assessed as upregulation of cyclin A expression level at 5 uM incubated for 48 hrs by Western blotting analysis; assay type: cell-based
HCT-116 [20] = assay: Cytotoxicity against human HCT-116 cells assessed as reduction in cell count at 1 uM incubated for >60 hrs by Hoechst-33342 staining high-content imaging analysis; assay type: toxicity, cell-based; details: hct-116, 60 h
HCT-116 [21] = assay: Cytotoxicity against human HCT-116 cells assessed as decrease in cell viability at 10 uM incubated for 24 hrs by Hoechst-33342 staining high-content imaging analysis; assay type: toxicity, cell-based; details: hct-116, 24 h
HCT-116 [22] = assay: Cytotoxicity against human HCT-116 cells assessed as appearance of pyknosis nuclei at 1 uM incubated for 80 hrs by Hoechst-33342 staining high-content imaging analysis; assay type: toxicity, cell-based; details: hct-116, 80 h
HCT-116 [23] = assay: Cytotoxicity against human HCT-116 cells assessed as appearance of pyknosis nuclei at 10 uM incubated for 80 hrs by Hoechst-33342 staining high-content imaging analysis; assay type: toxicity, cell-based; details: hct-116, 80 h
[24] = Drug metabolism in Sprague-Dawley rat liver microsomes assessed as compound metabolized incubated for 60 mins in presence of NADPH by HPLC analysis; assay type: ADME, Microsome; details: 1 h
SK-OV-3 [25] = assay: Induction of cell cycle arrest in human SK-OV-3 cells assessed as accumulation of cells at interphase at 5 uM incubated for 24 hrs by flow cytometry; assay type: functional

Chain of Serine/threonine-protein kinase SIK2 (Homo sapiens) (Q9H0K1 whole entry, looked up): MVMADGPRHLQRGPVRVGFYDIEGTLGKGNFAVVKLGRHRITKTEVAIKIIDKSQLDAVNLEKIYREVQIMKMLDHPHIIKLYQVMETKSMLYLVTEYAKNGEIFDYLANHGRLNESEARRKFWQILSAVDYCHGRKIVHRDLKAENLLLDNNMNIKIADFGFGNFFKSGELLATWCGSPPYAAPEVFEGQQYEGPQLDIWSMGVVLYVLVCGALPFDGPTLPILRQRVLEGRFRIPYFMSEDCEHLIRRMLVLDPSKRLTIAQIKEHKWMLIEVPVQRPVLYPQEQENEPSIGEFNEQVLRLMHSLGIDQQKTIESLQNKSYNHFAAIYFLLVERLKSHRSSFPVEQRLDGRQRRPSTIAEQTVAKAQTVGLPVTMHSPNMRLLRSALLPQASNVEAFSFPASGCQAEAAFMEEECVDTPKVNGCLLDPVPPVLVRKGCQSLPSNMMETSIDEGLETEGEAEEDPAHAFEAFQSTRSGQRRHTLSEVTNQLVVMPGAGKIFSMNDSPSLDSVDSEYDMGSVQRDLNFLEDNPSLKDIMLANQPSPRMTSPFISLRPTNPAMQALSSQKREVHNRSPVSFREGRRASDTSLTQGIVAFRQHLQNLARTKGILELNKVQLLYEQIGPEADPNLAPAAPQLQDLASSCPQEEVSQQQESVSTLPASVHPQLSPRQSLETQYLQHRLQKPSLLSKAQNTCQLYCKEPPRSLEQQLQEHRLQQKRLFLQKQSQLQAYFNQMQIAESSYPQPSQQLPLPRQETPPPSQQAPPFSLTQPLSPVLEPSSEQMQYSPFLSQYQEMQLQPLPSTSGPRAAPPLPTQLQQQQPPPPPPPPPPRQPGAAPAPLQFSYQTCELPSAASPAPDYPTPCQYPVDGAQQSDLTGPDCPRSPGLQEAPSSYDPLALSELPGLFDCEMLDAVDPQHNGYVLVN
T4 sequence (P54764 whole entry, the tested form may be a part): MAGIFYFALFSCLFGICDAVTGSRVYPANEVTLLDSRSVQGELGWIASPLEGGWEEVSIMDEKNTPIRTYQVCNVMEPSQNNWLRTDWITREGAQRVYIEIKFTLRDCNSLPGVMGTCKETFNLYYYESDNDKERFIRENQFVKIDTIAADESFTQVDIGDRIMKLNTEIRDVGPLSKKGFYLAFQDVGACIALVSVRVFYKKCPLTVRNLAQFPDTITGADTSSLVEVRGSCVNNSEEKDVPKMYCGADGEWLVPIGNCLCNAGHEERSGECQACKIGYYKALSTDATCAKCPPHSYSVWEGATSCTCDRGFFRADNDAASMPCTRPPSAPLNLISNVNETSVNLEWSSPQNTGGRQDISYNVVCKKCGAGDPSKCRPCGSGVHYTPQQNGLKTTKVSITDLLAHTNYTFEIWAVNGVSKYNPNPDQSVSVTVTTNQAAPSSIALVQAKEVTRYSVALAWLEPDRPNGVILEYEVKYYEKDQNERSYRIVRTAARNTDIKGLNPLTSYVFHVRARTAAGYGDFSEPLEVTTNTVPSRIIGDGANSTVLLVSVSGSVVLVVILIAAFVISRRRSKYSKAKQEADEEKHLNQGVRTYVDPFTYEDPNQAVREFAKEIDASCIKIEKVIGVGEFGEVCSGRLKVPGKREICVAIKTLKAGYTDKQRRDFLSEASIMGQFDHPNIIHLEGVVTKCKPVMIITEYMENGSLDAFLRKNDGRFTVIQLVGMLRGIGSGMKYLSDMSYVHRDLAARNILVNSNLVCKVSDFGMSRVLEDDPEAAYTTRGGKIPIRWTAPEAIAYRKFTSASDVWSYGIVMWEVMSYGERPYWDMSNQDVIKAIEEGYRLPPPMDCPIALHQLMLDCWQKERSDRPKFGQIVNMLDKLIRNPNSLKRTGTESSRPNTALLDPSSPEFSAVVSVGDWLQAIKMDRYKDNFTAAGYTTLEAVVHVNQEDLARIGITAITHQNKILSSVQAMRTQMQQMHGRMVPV
T3 sequence (P00519 whole entry): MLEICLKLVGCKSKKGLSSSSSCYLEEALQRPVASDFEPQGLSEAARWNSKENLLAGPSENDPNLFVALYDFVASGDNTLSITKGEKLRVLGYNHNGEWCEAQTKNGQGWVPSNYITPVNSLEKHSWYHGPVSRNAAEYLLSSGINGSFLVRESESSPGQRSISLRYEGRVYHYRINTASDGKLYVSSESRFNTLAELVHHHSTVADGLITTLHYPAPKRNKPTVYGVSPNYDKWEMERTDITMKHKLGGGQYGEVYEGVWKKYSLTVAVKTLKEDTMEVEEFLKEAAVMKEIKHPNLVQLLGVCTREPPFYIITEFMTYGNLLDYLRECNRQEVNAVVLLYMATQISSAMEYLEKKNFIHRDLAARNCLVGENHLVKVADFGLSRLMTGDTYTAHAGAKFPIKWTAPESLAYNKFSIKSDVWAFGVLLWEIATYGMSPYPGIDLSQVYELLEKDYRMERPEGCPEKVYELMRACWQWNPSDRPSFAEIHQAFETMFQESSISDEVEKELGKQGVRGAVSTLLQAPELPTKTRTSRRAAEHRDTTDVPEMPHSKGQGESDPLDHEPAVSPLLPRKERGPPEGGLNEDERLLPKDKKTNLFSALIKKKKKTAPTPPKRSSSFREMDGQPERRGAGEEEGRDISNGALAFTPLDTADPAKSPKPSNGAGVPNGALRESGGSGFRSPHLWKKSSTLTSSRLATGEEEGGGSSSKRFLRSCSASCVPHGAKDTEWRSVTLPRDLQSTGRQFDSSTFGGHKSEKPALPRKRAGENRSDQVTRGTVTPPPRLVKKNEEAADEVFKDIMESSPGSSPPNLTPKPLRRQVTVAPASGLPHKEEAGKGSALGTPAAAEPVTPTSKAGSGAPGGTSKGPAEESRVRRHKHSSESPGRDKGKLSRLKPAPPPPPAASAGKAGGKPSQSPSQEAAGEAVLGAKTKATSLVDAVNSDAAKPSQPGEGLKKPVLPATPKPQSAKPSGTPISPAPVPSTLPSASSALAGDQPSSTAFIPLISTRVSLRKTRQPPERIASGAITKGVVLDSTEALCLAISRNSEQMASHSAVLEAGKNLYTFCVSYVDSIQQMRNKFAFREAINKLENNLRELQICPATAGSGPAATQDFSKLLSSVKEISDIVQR
T2 sequence (P29317 whole entry): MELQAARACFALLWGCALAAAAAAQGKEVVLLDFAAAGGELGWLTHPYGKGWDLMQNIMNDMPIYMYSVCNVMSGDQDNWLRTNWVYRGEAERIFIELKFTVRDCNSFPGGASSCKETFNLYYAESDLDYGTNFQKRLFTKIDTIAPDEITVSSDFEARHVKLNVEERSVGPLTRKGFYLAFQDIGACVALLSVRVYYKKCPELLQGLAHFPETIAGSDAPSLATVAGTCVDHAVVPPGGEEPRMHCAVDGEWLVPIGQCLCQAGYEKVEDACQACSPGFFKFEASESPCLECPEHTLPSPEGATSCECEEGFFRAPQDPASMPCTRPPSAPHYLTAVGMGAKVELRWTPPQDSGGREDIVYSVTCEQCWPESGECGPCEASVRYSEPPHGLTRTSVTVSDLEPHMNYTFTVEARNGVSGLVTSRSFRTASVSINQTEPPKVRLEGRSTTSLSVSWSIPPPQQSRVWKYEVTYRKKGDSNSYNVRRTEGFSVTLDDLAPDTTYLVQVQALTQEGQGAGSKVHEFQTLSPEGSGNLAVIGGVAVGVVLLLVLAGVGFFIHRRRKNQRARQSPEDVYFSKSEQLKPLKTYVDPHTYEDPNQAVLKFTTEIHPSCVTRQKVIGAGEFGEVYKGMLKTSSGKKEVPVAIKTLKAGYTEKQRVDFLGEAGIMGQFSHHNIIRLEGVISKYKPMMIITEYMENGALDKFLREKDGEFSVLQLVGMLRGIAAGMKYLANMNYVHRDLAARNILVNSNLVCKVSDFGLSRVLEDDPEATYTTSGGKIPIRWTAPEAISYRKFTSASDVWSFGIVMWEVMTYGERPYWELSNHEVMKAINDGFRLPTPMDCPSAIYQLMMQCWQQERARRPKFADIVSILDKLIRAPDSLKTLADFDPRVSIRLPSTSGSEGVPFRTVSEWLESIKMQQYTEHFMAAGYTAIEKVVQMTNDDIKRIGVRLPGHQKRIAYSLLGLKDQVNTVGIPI
Chain of Ephrin type-A receptor 3 (P29320 whole entry, the tested form may be a part): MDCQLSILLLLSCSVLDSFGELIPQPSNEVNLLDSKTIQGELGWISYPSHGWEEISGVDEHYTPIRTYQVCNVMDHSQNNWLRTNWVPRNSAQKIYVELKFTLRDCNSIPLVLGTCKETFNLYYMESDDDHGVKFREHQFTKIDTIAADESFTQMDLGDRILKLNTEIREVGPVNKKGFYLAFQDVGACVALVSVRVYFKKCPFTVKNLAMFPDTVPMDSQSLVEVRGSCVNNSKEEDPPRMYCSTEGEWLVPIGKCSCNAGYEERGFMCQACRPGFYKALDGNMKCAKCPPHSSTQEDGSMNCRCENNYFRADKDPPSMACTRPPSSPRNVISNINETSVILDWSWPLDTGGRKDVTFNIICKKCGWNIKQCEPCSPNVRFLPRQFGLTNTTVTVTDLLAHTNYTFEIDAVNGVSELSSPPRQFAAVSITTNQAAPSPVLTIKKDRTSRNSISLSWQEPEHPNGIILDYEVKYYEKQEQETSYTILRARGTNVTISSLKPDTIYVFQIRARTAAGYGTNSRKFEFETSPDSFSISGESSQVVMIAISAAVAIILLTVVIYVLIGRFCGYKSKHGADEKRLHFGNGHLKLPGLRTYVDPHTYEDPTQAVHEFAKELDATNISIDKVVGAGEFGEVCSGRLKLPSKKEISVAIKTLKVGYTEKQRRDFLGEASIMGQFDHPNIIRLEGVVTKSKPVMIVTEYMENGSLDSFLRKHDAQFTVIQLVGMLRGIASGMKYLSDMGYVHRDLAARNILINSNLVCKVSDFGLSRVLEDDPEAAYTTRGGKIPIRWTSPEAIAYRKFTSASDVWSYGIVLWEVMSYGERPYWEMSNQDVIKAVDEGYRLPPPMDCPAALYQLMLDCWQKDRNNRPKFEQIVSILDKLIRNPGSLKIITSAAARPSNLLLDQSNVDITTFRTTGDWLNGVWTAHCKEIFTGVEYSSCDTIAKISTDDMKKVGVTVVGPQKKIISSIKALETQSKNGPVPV

CNc1ncc2cc(-c3cc(F)ccc3F)c(=O)n(CCCCN)c2n1
ΔTm [1]: 0.9 °C
ΔTm [2]: 1.5 °C
ΔTm [3]: 0 °C
ΔTm (Ephrin type-A receptor 2 [4]): 8.9 °C
ΔTm [5]: 7.4 °C
ΔTm [6]: 7 °C
ΔTm [7]: 5.9 °C
ΔTm [8]: 5.6 °C
ΔTm (Ephrin type-A receptor 4 [9]): 5.5 °C
IC50 (Ephrin type-A receptor 2 [10]): 2100 nM
IC50 [11]: 28100 nM
IC50 [12]: 33800 nM
IC50 (Ephrin type-A receptor 4 [13]): 1600 nM
IC50 (Ephrin type-A receptor 3): 2100 nM
inhibition [14]: Active
inhibition [15]: Active
Activity (SK-OV-3 [16]): 50%
Activity (SK-OV-3 [17]): 19%
inhibition [18]: Active
inhibition [19]: Active
Activity (HCT-116 [20]): Toxic
Activity (HCT-116 [21]): Toxic
Activity (HCT-116 [22]): Toxic
Activity (HCT-116 [23]): 30%
Drug metabolism [24]: Metabolite_Detected
Activity (SK-OV-3 [25]): 69%

— ChEMBL document CHEMBL5325437, “Shifting the selectivity of pyrido[2,3-d]pyrimidin-7(8H)-one inhibitors towards the salt-inducible kinase (SIK) subfamily” (Eur J Med Chem, 2023)
